Assay results reported in publication PMC12150326 (The Journal of Organic Chemistry, 2025).
pKd: −log10 of the molar value. Read-outs that look alike come from different tables or passages of the source.

Experiments:
bovine brain tubulin = assay: Tubulin polymerization inhibition; assay type: biochemical; details: 10 μM tubulin
Experimental: Inhibition of tubulin polymerization was determined as described previously. In brief, 10 μM bovine brain tubulin (PurSolutions, LLC (puresoluble.com)) was incubated under conditions strongly promoting polymerization of tubulin (1 M NaGlutamate, 0.1 M Mes (Morpholinoethanesulfonic acid), 1 mM MgCl2, 0.5 mM GTP, pH 6.9), in the absence or presence of 3.3 or 33 μM test compound, incubated for 30 min at 37 °C, then centrifuged at 100,000g for 8 min, and the top 3/4 of the supernatant removed. Protein concentration was measured, and polymerization was determined as pelletable protein lost from the supernatant.

[1] = tested on: colchicine site of bovine brain tubulin; assay type: binding
Experimental: Inhibition of this fluorescence increase was measured and converted to K d for the test compound as described.

M14 = assay type: cell-based, human
Experimental: (§1) (aR)-6, (aS)-6, (aS)-iso -6, and (aR)-iso -6 were submitted to the 60 Cell Screen panel and evaluated at 5 doses (100 μM, 10 μM, 1 μM, 0.1 μM, and 0.01 μM). […] The complete report from this submission is available at the publisher’s Web site as a separate Supporting Information file. For COMPARE analysis, TGI levels of response for (aR)-DM-MTC (6) and (aS)-iso-DM-MTC were compared to those of several established tubulin inhibitors previously tested in the NCI-60 screen.

HCT-15 = assay type: cell-based, human
Experimental: as §1

U251 = assay type: cell-based, human
Experimental: as §1

NCI 60 cell lines = assay type: cell-based, human
Experimental: as §1

MDA-MB-468 = assay type: cell-based, human
Experimental: as §1

MCF7 = assay type: cell-based, human
Experimental: as §1

CAKI-1 = assay type: cell-based, human
Experimental: as §1

SK-OV-3 = assay type: cell-based, human
Experimental: as §1

ACHN = assay type: cell-based, human
Experimental: as §1

NCI-H23 = assay type: cell-based, human
Experimental: as §1

RXF 393 = assay type: cell-based, human
Experimental: as §1

SF-295 = assay type: cell-based, human
Experimental: as §1

SK-MEL-28 = assay type: cell-based, human
Experimental: as §1

UACC-257 = assay type: cell-based, human
Experimental: as §1

SF-539 = assay type: cell-based, human
Experimental: as §1

UO-31 = assay type: cell-based, human
Experimental: as §1

NCI-H226 = assay type: cell-based, human
Experimental: as §1

BT-549 = assay type: cell-based, human
Experimental: as §1

A498 = assay type: cell-based, human
Experimental: as §1

HCT-116 = assay type: cell-based, human
Experimental: as §1

HT29 = assay type: cell-based, human
Experimental: as §1

OVCAR-5 = assay type: cell-based, human
Experimental: as §1

COc1cc(C)c(-c2ccc(OC)c(=O)cc2C)c(OC)c1OC (single isomer, unassigned) [(aR)-6]
Polymerization Inhibition (%) 3.3 μM (bovine brain tubulin; 3.3 μM compound): 0%
Polymerization Inhibition (%) 33 μM (bovine brain tubulin; 33 μM compound): 100%
binding constant fold less potent than 3 [1]: 5–30 fold
pKd ([1]; tubulin binding constant, 25 °C, read-out: Kd): 4.02
Log10GI50 (M14): -6.07 Molar
Log10LC50 (M14): > -4.00 Molar
Log10TGI (M14): > -4.00 Molar
GI50 (M14; Homo sapiens): 0.85 µM
Log10GI50 (M14; listed as (aR)-DM-MTC): -6.07 Molar
Log10GI50 (HCT-15): -6.17 Molar
Log10LC50 (HCT-15): > -4.00 Molar
Log10TGI (HCT-15): > -4.00 Molar
GI50 (HCT-15; Homo sapiens): 0.68 µM
Log10GI50 (HCT-15; listed as (aR)-DM-MTC): -6.17 Molar
Log10GI50 (U251): -5.53 Molar
Log10LC50 (U251): > -4.00 Molar
Log10TGI (U251): > -4.00 Molar
GI50 (U251; Homo sapiens, U-251): 2.95 µM
Log10GI50 (U251; listed as (aR)-DM-MTC): -5.53 Molar
fold less potent than colchicine, growth inhibition (NCI 60 cell lines): 10 to 50 fold
selectivity range (NCI 60 cell lines; NCI-60, GI50 level): 2.39 log units
Log10 Range at TGI (NCI 60 cell lines; NCI-60 cell line selectivity, listed as (aR)-DM-MTC (6)): 2.13
GI50 (NCI 60 cell lines; NCI-60 mean): 2.4 µM
Mean TGI (NCI 60 cell lines; NCI-60 mean total growth inhibition): 63 µM
Delta Log10GI50 (NCI 60 cell lines; mean graph): 0.95
Delta Log10LC50 (NCI 60 cell lines; mean graph): 0.73
Delta Log10TGI (NCI 60 cell lines; mean graph): 1.93
Range Log10GI50 (NCI 60 cell lines; mean graph): 2.39
Range Log10LC50 (NCI 60 cell lines; mean graph): 0.74
Range Log10TGI (NCI 60 cell lines; mean graph): 2.13
_MID Log10GI50 (NCI 60 cell lines; mean graph midpoint): -5.62 Molar
_MID Log10LC50 (NCI 60 cell lines; mean graph midpoint): -4.01 Molar
_MID Log10TGI (NCI 60 cell lines; mean graph midpoint): -4.2 Molar
Log10GI50 (MDA-MB-468): -5.97 Molar
Log10LC50 (MDA-MB-468): > -4.00 Molar
Log10TGI (MDA-MB-468): > -4.00 Molar
GI50 (MDA-MB-468; Homo sapiens): 1.07 µM
Log10GI50 (MDA-MB-468; listed as (aR)-DM-MTC): -5.97 Molar
Log10GI50 (MCF7): -6.11 Molar
Log10LC50 (MCF7): > -4.00 Molar
Log10TGI (MCF7): > -4.00 Molar
GI50 (MCF7; Homo sapiens): 0.78 µM
Log10GI50 (MCF7; listed as (aR)-DM-MTC): -6.11 Molar
Log10GI50 (CAKI-1): -6.03 Molar
Log10LC50 (CAKI-1): > -4.00 Molar
Log10TGI (CAKI-1): > -4.00 Molar
GI50 (CAKI-1; Homo sapiens): 0.93 µM
Log10GI50 (CAKI-1; listed as (aR)-DM-MTC): -6.03 Molar
Log10GI50 (SK-OV-3): -5.59 Molar
Log10LC50 (SK-OV-3): > -4.00 Molar
Log10TGI (SK-OV-3): > -4.00 Molar
GI50 (SK-OV-3; Homo sapiens): 2.57 µM
Log10GI50 (SK-OV-3; listed as (aR)-DM-MTC): -5.59 Molar
Log10GI50 (ACHN): -5.27 Molar
Log10LC50 (ACHN): > -4.00 Molar
Log10TGI (ACHN): > -4.00 Molar
GI50 (ACHN; Homo sapiens): 5.37 µM
Log10GI50 (ACHN; listed as (aR)-DM-MTC): -5.27 Molar
Log10GI50 (NCI-H23): -5.39 Molar
Log10LC50 (NCI-H23): > -4.00 Molar
Log10TGI (NCI-H23): > -4.00 Molar
GI50 (NCI-H23; Homo sapiens): 4.07 µM
Log10GI50 (NCI-H23; listed as (aR)-DM-MTC): -5.39 Molar
Log10GI50 (RXF 393): -5.71 Molar
Log10LC50 (RXF 393): > -4.00 Molar
Log10TGI (RXF 393): > -4.00 Molar
GI50 (RXF 393; Homo sapiens): 1.95 µM
Log10GI50 (RXF 393; listed as (aR)-DM-MTC): -5.71 Molar
Log10GI50 (SF-295): -5.76 Molar
Log10LC50 (SF-295): > -4.00 Molar
Log10TGI (SF-295): > -4.00 Molar
GI50 (SF-295; Homo sapiens): 1.74 µM
Log10GI50 (SF-295; listed as (aR)-DM-MTC): -5.76 Molar
Log10LC50 (SK-MEL-28): > -4.00 Molar
Log10TGI (SK-MEL-28): > -4.00 Molar
Log10GI50 (UACC-257): -5.11 Molar
Log10LC50 (UACC-257): > -4.00 Molar
Log10TGI (UACC-257): > -4.00 Molar
GI50 (UACC-257; Homo sapiens): 7.76 µM
Log10GI50 (UACC-257; listed as (aR)-DM-MTC): -5.11 Molar
Log10GI50 (SF-539): -5.65 Molar
Log10LC50 (SF-539): > -4.00 Molar
Log10TGI (SF-539): > -4.00 Molar
GI50 (SF-539; Homo sapiens): 2.24 µM
Log10GI50 (SF-539; listed as (aR)-DM-MTC): -5.65 Molar
Log10GI50 (UO-31): -5.16 Molar
Log10LC50 (UO-31): > -4.00 Molar
Log10TGI (UO-31): > -4.00 Molar
GI50 (UO-31; Homo sapiens): 6.92 µM
Log10GI50 (UO-31; listed as (aR)-DM-MTC): -5.16 Molar
Log10GI50 (NCI-H226): -5.41 Molar
Log10LC50 (NCI-H226): > -4.00 Molar
Log10TGI (NCI-H226): > -4.00 Molar
GI50 (NCI-H226; Homo sapiens): 3.89 µM
Log10GI50 (NCI-H226; listed as (aR)-DM-MTC): -5.41 Molar
Log10GI50 (BT-549): -5.69 Molar
Log10LC50 (BT-549): > -4.00 Molar
Log10TGI (BT-549): -5.18 Molar
GI50 (BT-549; Homo sapiens): 2.04 µM
Log10GI50 (BT-549; listed as (aR)-DM-MTC): -5.69 Molar
Log10GI50 (A498): -6.10 Molar
Log10LC50 (A498): > -4.00 Molar
Log10TGI (A498): -5.34 Molar
GI50 (A498; Homo sapiens): 0.79 µM
Log10GI50 (A498; listed as (aR)-DM-MTC): -6.1 Molar
Log10GI50 (HCT-116): -5.71 Molar
Log10LC50 (HCT-116): > -4.00 Molar
Log10TGI (HCT-116): > -4.00 Molar
GI50 (HCT-116; Homo sapiens): 1.95 µM
Log10GI50 (HCT-116; listed as (aR)-DM-MTC): -5.71 Molar
Log10GI50 (HT29): -5.73 Molar
Log10LC50 (HT29): > -4.00 Molar
Log10TGI (HT29): -5.02 Molar
GI50 (HT29; Homo sapiens, HT-29): 1.86 µM
Log10GI50 (HT29; listed as (aR)-DM-MTC): -5.73 Molar
Log10GI50 (OVCAR-5): -5.36 Molar
Log10LC50 (OVCAR-5): > -4.00 Molar
Log10TGI (OVCAR-5): > -4.00 Molar
GI50 (OVCAR-5; Homo sapiens): 4.37 µM
Log10GI50 (OVCAR-5; listed as (aR)-DM-MTC): -5.36 Molar
